System: 227483-062-R1-J1-PDC complex spheroids with HUVEC/MSC, viability
Test: Anticancer human tumor 227483-062-R1-J1-PDC patient-derived pancreatic carcinoma cell line growth inhibition [CLK]
Details: for IC50: curve of first compound; for viability, T/C: stronger effect = lower value
Procedure, shortened: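 Patient-derived tumor cells grown as complex spheroids with HUVEC endothelial cells and mesenchymal stem cells, treated with drug combinations. Concentrations descend in half-log steps from near clinical Cmax, or from 10 microM if Cmax unknown.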
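Also: spheroids exposed to compounds for seven days before readout.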
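For viability, T/C in this document: percent of DMSO vehicle control luminescence as 100% viability.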

## C=CC(=O)Nc1cc(Nc2nccc(-c3cn(C)c4ccccc34)n2)c(OC)cc1N(C)CCN(C)C + CN1CCN(c2cc(C(=O)Nc3cc4cc(-c5cnn(C)c5)ccc4cn3)ccn2)CC1
Second compound 0.0316 µM
  IC50: > 300 nM
Second compound 0.1 µM
  IC50: > 300 nM
Second compound 0.316 µM
  IC50: < 0.949 nM
Second compound 1 µM
  IC50: < 0.949 nM
Second compound 3.16 µM
  IC50: < 0.949 nM
Second compound 10 µM
  IC50: < 0.949 nM
Second compound 0.0316 µM, first compound 0.000949 µM
  viability, T/C: 101%
Second compound 0.0316 µM, first compound 0.003 µM
  viability, T/C: 104%
Second compound 0.0316 µM, first compound 0.00949 µM
  viability, T/C: 117%
Second compound 0.0316 µM, first compound 0.03 µM
  viability, T/C: 99.1%
Second compound 0.0316 µM, first compound 0.0949 µM
  viability, T/C: 87.5%
Second compound 0.0316 µM, first compound 0.3 µM
  viability, T/C: 79.2%
Second compound 0.1 µM, first compound 0.000949 µM
  viability, T/C: 71.5%
Second compound 0.1 µM, first compound 0.003 µM
  viability, T/C: 64.6%
Second compound 0.1 µM, first compound 0.00949 µM
  viability, T/C: 61.5%
Second compound 0.1 µM, first compound 0.03 µM
  viability, T/C: 77%
Second compound 0.1 µM, first compound 0.0949 µM
  viability, T/C: 68%
Second compound 0.1 µM, first compound 0.3 µM
  viability, T/C: 56%
Second compound 0.316 µM, first compound 0.000949 µM
  viability, T/C: 4.77%
Second compound 0.316 µM, first compound 0.003 µM
  viability, T/C: 5.57%
Second compound 0.316 µM, first compound 0.00949 µM
  viability, T/C: 5.48%
Second compound 0.316 µM, first compound 0.03 µM
  viability, T/C: 5.73%
Second compound 0.316 µM, first compound 0.0949 µM
  viability, T/C: 8.02%
Second compound 0.316 µM, first compound 0.3 µM
  viability, T/C: 4.25%
Second compound 1 µM, first compound 0.000949 µM
  viability, T/C: 3.69%
Second compound 1 µM, first compound 0.003 µM
  viability, T/C: 1.6%
Second compound 1 µM, first compound 0.00949 µM
  viability, T/C: 2.26%
Second compound 1 µM, first compound 0.03 µM
  viability, T/C: 4.39%
Second compound 1 µM, first compound 0.0949 µM
  viability, T/C: 2.66%
Second compound 1 µM, first compound 0.3 µM
  viability, T/C: 1.57%
Second compound 3.16 µM, first compound 0.000949 µM
  viability, T/C: 3.65%
Second compound 3.16 µM, first compound 0.003 µM
  viability, T/C: 4.21%
Second compound 3.16 µM, first compound 0.00949 µM
  viability, T/C: 3%
Second compound 3.16 µM, first compound 0.03 µM
  viability, T/C: 7.42%
Second compound 3.16 µM, first compound 0.0949 µM
  viability, T/C: 2.8%
Second compound 3.16 µM, first compound 0.3 µM
  viability, T/C: 5.59%
Second compound 10 µM, first compound 0.000949 µM
  viability, T/C: 3.23%
Second compound 10 µM, first compound 0.003 µM
  viability, T/C: 6.58%
Second compound 10 µM, first compound 0.00949 µM
  viability, T/C: 2.57%
Second compound 10 µM, first compound 0.03 µM
  viability, T/C: 4.96%
Second compound 10 µM, first compound 0.0949 µM
  viability, T/C: 2.09%
Second compound 10 µM, first compound 0.3 µM
  viability, T/C: 1.83%
